The values below come from PMC12951562, “SH2scan: Mapping SH2 Domain-Ligand Binding Selectivity for Inhibitors and Degraders” (Journal of Medicinal Chemistry, 2026).

Holding throughout (test): biochemical
What all share (format): binding

One assay concerns the target T1, BLK (Homo sapiens, UniProt P51451).
T1 construct: the DNA-tagged SH2 domain concentrations used in this study were <0.1 nM; made in house; host or cells: HEK293 (transient transfection; unpurified extract)
Particulars: read-out: percent of DMSO vehicle control.

Another assay addresses T2, BLNK (Homo sapiens, UniProt Q8WV28).
T2 construct: the DNA-tagged SH2 domain concentrations used in this study were <0.1 nM; made in house; host or cells: HEK293 (transient transfection; unpurified extract)
T2 sequence (Q8WV28 346-453 limits assumed): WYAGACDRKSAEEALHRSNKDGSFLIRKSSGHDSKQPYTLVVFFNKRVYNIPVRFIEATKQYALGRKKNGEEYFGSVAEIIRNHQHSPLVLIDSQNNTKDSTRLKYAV
Particulars: read-out: percent of DMSO vehicle control.

Another assay deals with T3, CBLB (Homo sapiens, UniProt Q13191).
T3 construct: the DNA-tagged SH2 domain concentrations used in this study were <0.1 nM; made in house; host or cells: HEK293 (transient transfection; unpurified extract)
T3 sequence (Q13191 241-343 limits assumed): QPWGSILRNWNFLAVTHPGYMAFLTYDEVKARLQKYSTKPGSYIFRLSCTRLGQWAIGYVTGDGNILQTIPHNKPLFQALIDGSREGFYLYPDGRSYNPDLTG
Particulars: primary screen, 10 μM.

The next assay deals with T4, GADS (Homo sapiens, UniProt O75791).
T4 construct: the DNA-tagged SH2 domain concentrations used in this study were <0.1 nM; made in house; host or cells: HEK293 (transient transfection; unpurified extract)
T4 sequence (O75791 58-149 limits assumed): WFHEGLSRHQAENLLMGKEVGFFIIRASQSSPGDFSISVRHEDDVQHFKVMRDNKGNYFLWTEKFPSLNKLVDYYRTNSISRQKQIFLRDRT
Particulars: read-out: percent of DMSO vehicle control.

The next assay has as its target T5, GRB14 (Homo sapiens, UniProt Q14449).
T5 construct: the DNA-tagged SH2 domain concentrations used in this study were <0.1 nM; made in house; host or cells: HEK293 (transient transfection; unpurified extract)
T5 sequence (Q14449 439-535 limits assumed): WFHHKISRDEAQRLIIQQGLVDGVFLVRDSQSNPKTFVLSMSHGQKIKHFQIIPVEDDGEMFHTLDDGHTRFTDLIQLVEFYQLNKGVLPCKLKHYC
Particulars: read-out: percent of DMSO vehicle control.

The next assay deals with T6, NCK2 (Homo sapiens, UniProt O43639).
T6 construct: the DNA-tagged SH2 domain concentrations used in this study were <0.1 nM; made in house; host or cells: HEK293 (transient transfection, unpurified extract)
T6 sequence (O43639 285-380 limits assumed): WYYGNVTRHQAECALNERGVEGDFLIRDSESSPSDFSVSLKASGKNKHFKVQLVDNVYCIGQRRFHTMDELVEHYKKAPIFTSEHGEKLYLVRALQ
Particulars: read-out: percent of DMSO vehicle control.

The next assay addresses T7, PIK3R1(SH2dom.N-term.) (Homo sapiens, UniProt P27986).
T7 construct: SH2dom.N-term. denotes SH2 domain closest to N-terminus of protein; made in house; host or cells: HEK293 (transient transfection, unpurified extract)
Particulars: read-out: percent of DMSO vehicle control.

The next assay has as its target T8, PLCG1(SH2dom.N-term.) (Homo sapiens, UniProt P19174).
T8 construct: SH2dom.N-term. denotes SH2 domain closest to N-terminus of protein; made in house; host or cells: HEK293 (transient transfection, unpurified extract)
T8 sequence (P19174 550-657 limits assumed): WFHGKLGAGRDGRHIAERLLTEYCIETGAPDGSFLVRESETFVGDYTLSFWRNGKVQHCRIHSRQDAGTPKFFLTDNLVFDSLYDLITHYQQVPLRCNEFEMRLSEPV
Particulars: read-out: percent of DMSO vehicle control.

A further assay addresses T9, PTPN6(SH2dom.C-term.) (Homo sapiens, UniProt P29350).
T9 construct: SH2dom.C-term. denotes SH2 domain closest to C-terminus of protein; made in house; host or cells: HEK293 (transient transfection, unpurified extract)
T9 sequence (P29350 110-213 limits assumed): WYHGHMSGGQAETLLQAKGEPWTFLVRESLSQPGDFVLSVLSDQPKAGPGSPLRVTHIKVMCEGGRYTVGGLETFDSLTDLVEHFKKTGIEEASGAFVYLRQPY
Particulars: read-out: percent of DMSO vehicle control.

A further assay has as its target T10, PTPN6(SH2dom.N-term.) (Homo sapiens, UniProt P29350).
T10 construct: SH2dom.N-term. denotes SH2 domain closest to N-terminus of protein; made in house; host or cells: HEK293 (transient transfection, unpurified extract)
T10 sequence (P29350 4-100 limits assumed): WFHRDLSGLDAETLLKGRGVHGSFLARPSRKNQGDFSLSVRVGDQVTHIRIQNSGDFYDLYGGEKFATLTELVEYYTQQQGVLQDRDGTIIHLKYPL
Particulars: read-out: percent of DMSO vehicle control.

The next assay has as its target T11, RASA1(SH2dom.C-term.) (Homo sapiens, UniProt P20936).
T11 construct: SH2dom.C-term. denotes SH2 domain closest to C-terminus of protein; made in house; host or cells: HEK293 (transient transfection, unpurified extract)
T11 sequence (P20936 351-441 limits assumed): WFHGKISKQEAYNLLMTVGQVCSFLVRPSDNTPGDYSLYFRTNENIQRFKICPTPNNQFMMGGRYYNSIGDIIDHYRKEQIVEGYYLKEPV
Particulars: read-out: percent of DMSO vehicle control.

The target in the next assay is T12, SH2D6 (Homo sapiens, UniProt Q7Z4S9).
T12 construct: made in house; host or cells: HEK293 (transient transfection), unpurified extract
T12 sequence (Q7Z4S9 whole entry): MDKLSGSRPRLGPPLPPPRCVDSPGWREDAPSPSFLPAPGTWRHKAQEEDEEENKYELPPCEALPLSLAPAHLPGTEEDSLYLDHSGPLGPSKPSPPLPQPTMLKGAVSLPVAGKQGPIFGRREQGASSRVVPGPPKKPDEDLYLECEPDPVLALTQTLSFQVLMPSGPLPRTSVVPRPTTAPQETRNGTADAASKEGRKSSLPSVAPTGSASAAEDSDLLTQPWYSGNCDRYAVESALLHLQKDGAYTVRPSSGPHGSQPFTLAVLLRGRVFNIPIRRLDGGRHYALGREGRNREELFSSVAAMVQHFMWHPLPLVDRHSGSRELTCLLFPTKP
Particulars: read-out: percent of DMSO vehicle control.

A further assay addresses T13, SHC1 (Homo sapiens, UniProt P29353).
T13 construct: made in house; host or cells: HEK293 (transient transfection), unpurified extract
T13 sequence (P29353 1-583): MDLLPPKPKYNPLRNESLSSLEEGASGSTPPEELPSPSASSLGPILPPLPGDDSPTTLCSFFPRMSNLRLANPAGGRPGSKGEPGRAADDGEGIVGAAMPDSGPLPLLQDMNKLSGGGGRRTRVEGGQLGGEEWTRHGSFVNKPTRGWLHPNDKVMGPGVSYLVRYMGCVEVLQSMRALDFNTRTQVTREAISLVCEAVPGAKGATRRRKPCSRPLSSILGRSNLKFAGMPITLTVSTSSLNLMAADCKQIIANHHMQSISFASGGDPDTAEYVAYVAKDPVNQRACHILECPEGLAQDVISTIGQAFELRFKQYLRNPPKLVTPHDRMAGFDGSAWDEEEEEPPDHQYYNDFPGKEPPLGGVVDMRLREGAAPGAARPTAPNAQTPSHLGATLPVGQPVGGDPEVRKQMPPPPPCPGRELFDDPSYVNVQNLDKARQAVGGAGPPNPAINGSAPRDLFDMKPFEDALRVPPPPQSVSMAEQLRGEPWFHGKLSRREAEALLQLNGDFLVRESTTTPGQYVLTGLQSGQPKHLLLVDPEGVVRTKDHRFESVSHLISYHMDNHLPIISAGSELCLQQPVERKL
Particulars: read-out: percent of DMSO vehicle control.

For another assay, the target named is T14, CISH (Homo sapiens, UniProt Q9NSE2).
T14 construct: the DNA-tagged SH2 domain concentrations used in this study were <0.1 nM; made in house; host or cells: HEK293 (transient transfection; unpurified extract)
T14 sequence (Q9NSE2 82-163 limits assumed): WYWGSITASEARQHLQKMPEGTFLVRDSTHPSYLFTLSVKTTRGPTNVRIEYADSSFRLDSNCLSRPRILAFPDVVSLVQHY
Particulars: for remaining activity at 10 µM: read-out: percent of DMSO vehicle control.

The target in the next assay is T15, STAT3 (Homo sapiens, UniProt P40763).
T15 construct: made in house; host or cells: HEK293 (transient transfection), unpurified extract
T15 sequence (P40763 whole entry): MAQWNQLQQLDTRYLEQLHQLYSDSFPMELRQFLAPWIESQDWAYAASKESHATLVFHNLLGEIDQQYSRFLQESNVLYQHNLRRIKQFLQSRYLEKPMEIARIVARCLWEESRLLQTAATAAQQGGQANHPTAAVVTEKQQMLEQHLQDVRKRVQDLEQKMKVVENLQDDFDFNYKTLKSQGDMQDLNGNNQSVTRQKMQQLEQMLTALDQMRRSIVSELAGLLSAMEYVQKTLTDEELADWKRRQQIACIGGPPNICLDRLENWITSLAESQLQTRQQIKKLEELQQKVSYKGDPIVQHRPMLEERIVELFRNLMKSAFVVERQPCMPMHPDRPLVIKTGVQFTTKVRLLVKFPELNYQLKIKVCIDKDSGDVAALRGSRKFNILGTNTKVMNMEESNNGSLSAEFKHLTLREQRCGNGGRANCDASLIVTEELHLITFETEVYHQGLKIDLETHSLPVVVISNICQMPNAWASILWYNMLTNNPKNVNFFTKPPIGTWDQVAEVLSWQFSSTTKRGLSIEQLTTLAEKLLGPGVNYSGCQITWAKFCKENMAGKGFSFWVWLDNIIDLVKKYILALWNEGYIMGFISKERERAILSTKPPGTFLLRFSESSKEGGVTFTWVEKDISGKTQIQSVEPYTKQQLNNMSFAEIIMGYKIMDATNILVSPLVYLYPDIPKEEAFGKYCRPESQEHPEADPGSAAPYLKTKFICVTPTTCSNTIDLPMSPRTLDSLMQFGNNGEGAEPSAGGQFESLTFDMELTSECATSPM

Where [1] appears, read: read-out: percent of DMSO vehicle control.

Like-named read-outs stand apart in the source and are kept apart here.

T1 sequence (P51451 124-220 limits assumed): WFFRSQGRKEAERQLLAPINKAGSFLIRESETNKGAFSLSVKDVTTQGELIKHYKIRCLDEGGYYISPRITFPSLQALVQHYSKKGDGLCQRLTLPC
T7 sequence (P27986 333-428 limits assumed): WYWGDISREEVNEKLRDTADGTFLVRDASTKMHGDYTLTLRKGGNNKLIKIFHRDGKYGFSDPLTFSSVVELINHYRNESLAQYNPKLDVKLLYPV

As for `O=C(CCl)Nc1cccc(CNC(=O)[C@H](Cc2ccc(OP(=O)(O)O)cc2)NC(=O)Cc2ccc(F)cc2)c1` [MN551], the remaining activity at 10 µM at BLK (primary screen, 10 μM) was determined as 116%; at BLNK (primary screen, 10 μM) it was 101%; on GADS (primary screen, 10 μM), 42.9 ± 0.8%; on GRB14 (primary screen, 10 μM), 62.1 ± 2.4%; at NCK2 (primary screen, 10 μM) it was 81.5 ± 3%; at PIK3R1(SH2dom.N-term.) (primary screen, 10 μM) it was 99.8 ± 1.6%. The remaining activity at 10 µM is 62.8 ± 3.8% on PLCG1(SH2dom.N-term.) (primary screen, 10 μM); 147% on PTPN6(SH2dom.C-term.) (primary screen, 10 μM); 102% on PTPN6(SH2dom.N-term.) (primary screen, 10 μM); 107% on RASA1(SH2dom.C-term.) (primary screen, 10 μM); 93.6 ± 4.8% on SH2D6 (primary screen, 10 μM); 112% at SHC1 (primary screen, 10 μM). Also, the remaining activity at 10 µM at CISH (primary screen, 10 μM) was 3.2 ± 4.3%; on STAT3 (primary screen, 10 μM, read-out: percent of DMSO vehicle control), 67.8%. The “percent of DMSO vehicle control” value on CBLB was found to be 86.8±3.2%. For the same compound, the Kd (as a rule, the constant that tells how readily two partners part at equilibrium) on CISH (dose-response, read-out: KD) came out at 0.046 µM.

As to `NC(=O)CC[C@H](NC(=O)[C@@H]1CC[C@@H]2CCN(C(=O)CCCCCC#Cc3cccc4c3CN(C3CCC(=O)NC3=O)C4=O)C[C@H](NC(=O)c3cc4cc(C(F)(F)P(=O)(O)O)ccc4[nH]3)C(=O)N21)C(=O)NC(c1ccccc1)c1ccccc1` (stereo partly drawn) [SD-36], the remaining activity at 10 µM on BLK was 70.6 ± 5.9%; on BLNK, 104%; on GRB14, 43.2 ± 2.9%; on NCK2, 80 ± 38.4%; on PIK3R1(SH2dom.N-term.), 124%; at PLCG1(SH2dom.N-term.), 91.3 ± 4.5%. Also, the remaining activity at 10 µM amounted to 108 ± 6.9% on PTPN6(SH2dom.C-term.); 87.3 ± 4.7% on PTPN6(SH2dom.N-term.); 86.6 ± 9.6% on RASA1(SH2dom.C-term.); 99.6 ± 3.4% on SH2D6; 62 ± 8.8% on SHC1; 42.8 ± 5.7% on CISH. On CBLB, the “percent of DMSO vehicle control” value is 60.9±5.8%. Further, the percent of DMSO vehicle control at 10 µM on GADS was 140.4 ± 0.2%; at STAT3 (setting [1]) it was 0.1 ± 0.1%. This compound also gave a Kd at STAT3 (dose-response) of 0.021 µM.

Regarding `CC(=O)N1CC[C@H]2CC[C@@H](C(=O)N[C@@H](CCC(N)=O)C(=O)NC(c3ccccc3)c3ccccc3)N2C(=O)[C@@H](NC(=O)c2cc3cc(C(F)(F)P(=O)(O)O)ccc3[nH]2)C1` [SI-109], the remaining activity at 10 µM at BLK is 105%; on BLNK, 117%; at GRB14 it was 110%; at NCK2, 121%; on PIK3R1(SH2dom.N-term.) it was 134%; on PLCG1(SH2dom.N-term.) it was 130%. For the same compound, the remaining activity at 10 µM on PTPN6(SH2dom.C-term.) came out at 119%; on PTPN6(SH2dom.N-term.), 123%; on RASA1(SH2dom.C-term.) it was 118%; at SH2D6 it was 96.9 ± 1.7%; at SHC1, 112%; at CISH it was 102%. At CBLB, the “percent of DMSO vehicle control” value is recorded as 128.3%. In addition, the percent of DMSO vehicle control at 10 µM at GADS stood at 276%; on STAT3 (setting [1]), 0.4 ± 0.1%. Besides, binding at STAT3 was put at a Kd of 0.015 µM.
